Results as given in US20250360235A1, “RADI[…] AND METHOD FOR RADIOLABELLING” (Telix Innovations SA, priority 2024, published 2025).

Assays:
[1] = Visual inspection of [68Ga]PSMA-11 solution (acceptance: colourless to slightly yellow solution, free from visible particles); assay type: physicochemical; parameters: key: C = conforms to specifications
Protocol: (§1) Table 1 to Table 5 show the results of various radiolabelling experiments on radiochemical purity and the chelation yield. The radiolabelling experiments in the tables are carried out as described in: • Example 1 for when the gallium-68 source is GE Liquid target generator and EZAG GalliaPharm generator; • Example 2 for when the gallium-68 source is IRE Galli Eo generator; • Example 3 for when the gallium-68 source is GE solid target generator;
(§2) However, the experiments were carried out with the amount of ascorbic acid as indicated in the Tables 1 to 5, and the activity as indicated in the Tables 1 to 5. Radiochemical purities were measured at various times (T0, T1, T4, T6) after the radiolabelled experiments have been conducted.
(§3) The kits of Example 1, Example 2 or Example 3, with amounts of ascorbic acid as set out in Table 7 were used in the experiments for the ascorbic acid bracketing matrix. Three strengths of [^68Ga]Ga-PSMA-11 will be tested, i.e. 50 mCi/ml, 7 mCi/ml and 1 mCi/ml. Radiochemical purity was determined at different time points (TO, T1, T4 or T6), as set out in Table 7.

[2] = as above; assay type: physicochemical; parameters: key: C = Conforms to specifications
Protocol: as §1, §2, §3

Measured: Visual Inspection

O=C([O-])CN(CCN(CC(=O)[O-])Cc1cc(CCC(=O)NCCCCCC(=O)NCCCC[C@H](NC(=O)N[C@@H](CCC(=O)O)C(=O)O)C(=O)O)ccc1[O-])Cc1cc(CCC(=O)O)ccc1[O-].[68Ga+3].[OH3+] [[^68Ga]PSMA-11, gallium-68 radiolabelled Glu-urea-Lys-HBED-CC (gozetotide or PSMA-11)]
C: [1]; 1 mg ascorbic acid, 58.7-71.1 mCi, 7.47-8.99 mCi/mL, GE Liquid target, n=3, T0 | [1]; 1 mg ascorbic acid, 58.7-71.1 mCi, 7.47-8.99 mCi/mL, GE Liquid target, n=3, T4 (4 h) | [1]; 2.5 mg ascorbic acid, 49.9-76.9 mCi, 6.31-9.72 mCi/mL, GE Liquid target, n=3, T0 | [1]; 2.5 mg ascorbic acid, 49.9-76.9 mCi, 6.31-9.72 mCi/mL, GE Liquid target, n=3, T4 (4 h) | [1]; 5 mg ascorbic acid, 60-69.9 mCi, 7.61-8.81 mCi/mL, 3 × GE Liquid Target, 3 × EZAG GalliaPharm, n=6, T0 | [1]; 5 mg ascorbic acid, 60-69.9 mCi, 7.61-8.81 mCi/mL, 3 × GE Liquid Target, 3 × EZAG GalliaPharm, n=6, T4 (4 h) | [1]; 10 mg ascorbic acid, 458-500 mCi, 43.4-47.3 mCi/mL, GE Solid Target, n=3, T0 | [1]; 10 mg ascorbic acid, 458-500 mCi, 43.4-47.3 mCi/mL, GE Solid Target, n=3, T4 (4 h) | [1]; 10 mg ascorbic acid, 514-520 mCi, 49.0-66.1 mCi/mL, GE Solid Target, n=3, T0 | [1]; 10 mg ascorbic acid, 514-520 mCi, 49.0-66.1 mCi/mL, GE Solid Target, n=3, T6 (6 h) | [1]; 15 mg ascorbic acid, 10.0-18.4 mCi, 0.95-1.77 mCi/mL, 1 × EZAG GalliaPharm, 2 × IRE Galli Eo, n=3, T0 | [1]; 15 mg ascorbic acid, 10.0-18.4 mCi, 0.95-1.77 mCi/mL, 1 × EZAG GalliaPharm, 2 × IRE Galli Eo, n=3, T1 (1 h) | [1]; 15 mg ascorbic acid, 23.7-47.6 mCi, 2.26-4.53 mCi/mL, 1 × EZAG GalliaPharm, 2 × IRE Galli Eo, n=3, T0 | [1]; 15 mg ascorbic acid, 23.7-47.6 mCi, 2.26-4.53 mCi/mL, 1 × EZAG GalliaPharm, 2 × IRE Galli Eo, n=3, T4 (4 h) | [1]; 20 mg ascorbic acid, 514-544 mCi, 48.3-51.9 mCi/mL, GE Solid Target, n=2, T0 | [1]; 20 mg ascorbic acid, 514-544 mCi, 48.3-51.9 mCi/mL, GE Solid Target, n=2, T6 (6 h) | [1]; 50 mg ascorbic acid, 560 mCi, 71.1 mCi/mL, GE Solid Target, n=1, T0 | [1]; 50 mg ascorbic acid, 560 mCi, 71.1 mCi/mL, GE Solid Target, n=1, T6 (6 h) | [2]; bracketing ~1 mCi/mL, 18.75 mg ascorbic acid, 8.9-11.5 mCi, 0.85-1.09 mCi/mL, IRE Galli Eo, n=2, T0 | [2]; bracketing ~1 mCi/mL, 18.75 mg ascorbic acid, 8.9-11.5 mCi, 0.85-1.09 mCi/mL, IRE Galli Eo, n=2, T1 (1 h) | [2]; bracketing ~1 mCi/mL, 25 mg ascorbic acid, 8.8-12.7 mCi, 0.84-1.21 mCi/mL, 2 × IRE Galli Eo, n=2, T0 | [2]; bracketing ~1 mCi/mL, 25 mg ascorbic acid, 8.8-12.7 mCi, 0.84-1.21 mCi/mL, 2 × IRE Galli Eo, n=2, T1 (1 h) | [2]; bracketing ~1 mCi/mL, 31.25 mg ascorbic acid, 15.2-26.9 mCi, 1.44-2.54 mCi/mL, EZAG GalliaPharm, n=2, T0 | [2]; bracketing ~1 mCi/mL, 31.25 mg ascorbic acid, 15.2-26.9 mCi, 1.44-2.54 mCi/mL, EZAG GalliaPharm, n=2, T1 (1 h) | [2]; bracketing ~7 mCi/mL, 18.75 mg ascorbic acid, 51.0-58.0 mCi, 5.55-6.5 mCi/mL, IRE Galli Eo, n=2, T0 | [2]; bracketing ~7 mCi/mL, 18.75 mg ascorbic acid, 51.0-58.0 mCi, 5.55-6.5 mCi/mL, IRE Galli Eo, n=2, T4 (4 h) | [2]; bracketing ~7 mCi/mL, 25 mg ascorbic acid, 51.6-74.4 mCi, 4.56-6.92 mCi/mL, 3 × GE Liquid Target, 3 × IRE Galli Eo, 3 × EZAG GalliaPharm, n=9, T0 | [2]; bracketing ~7 mCi/mL, 25 mg ascorbic acid, 51.6-74.4 mCi, 4.56-6.92 mCi/mL, 3 × GE Liquid Target, 3 × IRE Galli Eo, 3 × EZAG GalliaPharm, n=9, T4 (4 h) | [2]; bracketing ~7 mCi/mL, 31.25 mg ascorbic acid, 61.5-62.0 mCi, 5.85-5.88 mCi/mL, EZAG GalliaPharm, n=2, T0 | [2]; bracketing ~7 mCi/mL, 31.25 mg ascorbic acid, 61.5-62.0 mCi, 5.85-5.88 mCi/mL, EZAG GalliaPharm, n=2, T4 (4 h) | [2]; bracketing ~50 mCi/mL, 20 mg ascorbic acid, 514-544 mCi, 48.3-51.9 mCi/mL, GE Solid Target, n=2, T0 | [2]; bracketing ~50 mCi/mL, 20 mg ascorbic acid, 514-544 mCi, 48.3-51.9 mCi/mL, GE Solid Target, n=2, T6 (6 h) | [2]; bracketing ~50 mCi/mL, 25 mg ascorbic acid, 537-551 mCi, 50.2-51.6 mCi/mL, GE Solid Target, n=3, T0 | [2]; bracketing ~50 mCi/mL, 25 mg ascorbic acid, 537-551 mCi, 50.2-51.6 mCi/mL, GE Solid Target, n=3, T6 (6 h) | [2]; bracketing ~50 mCi/mL, 31.25 mg ascorbic acid, 500-544 mCi, 48.1-51.7 mCi/mL, GE Solid Target, n=2, T0 | [2]; bracketing ~50 mCi/mL, 31.25 mg ascorbic acid, 500-544 mCi, 48.1-51.7 mCi/mL, GE Solid Target, n=2, T6 (6 h)
